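Test compounds were applied to cells in 96-well plates for 48 hours at 5 doses. Definition used: TGI = concentration required for complete inhibition of growth.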
Columns and labels:
Experiment in all cases: NCI-60 cell line screen, 48 h
HT29 colon = test system: HT29 colon
SNB-19 CNS = test system: SNB-19 CNS
OVCAR-8 ovarian = test system: OVCAR-8 ovarian
HS 578T breast = test system: HS 578T breast
OVCAR-4 ovarian = test system: OVCAR-4 ovarian
HOP-62 NSCLC = test system: HOP-62 NSCLC
ACHN renal = test system: ACHN renal
NCI-H460 lung = test system: NCI-H460 lung
SK-MEL-2 melanoma = test system: SK-MEL-2 melanoma
EKVX NSCLC = test system: EKVX NSCLC
PC-3 prostate = test system: PC-3 prostate
MDA-N = test system: MDA-N
CAKI-1 renal = test system: CAKI-1 renal
786-0 renal = test system: 786-0 renal
T-47D breast = test system: T-47D breast
HL-60(TB) leukemia = test system: HL-60(TB) leukemia
KM12 colon = test system: KM12 colon
RPMI-8226 leukemia = test system: RPMI-8226 leukemia
SK-MEL-5 melanoma = test system: SK-MEL-5 melanoma
RXF 393 renal = test system: RXF 393 renal
HCT-15 colon = test system: HCT-15 colon
A498 renal = test system: A498 renal
SR leukemia = test system: SR leukemia
SF-539 CNS = test system: SF-539 CNS
SK-MEL-28 melanoma = test system: SK-MEL-28 melanoma
SW-620 colon = test system: SW-620 colon
HCC-2998 colon = test system: HCC-2998 colon
LOX IMVI melanoma = test system: LOX IMVI melanoma
DU-145 prostate = test system: DU-145 prostate
A549 NSCLC = test system: A549 NSCLC
SF-268 CNS = test system: SF-268 CNS
NCI-H23 lung = test system: NCI-H23 lung
NCI/ADR-RES ovarian = test system: NCI/ADR-RES ovarian
MALME-3M melanoma = test system: MALME-3M melanoma
UO-31 renal = test system: UO-31 renal
CCRF-CEM leukemia = test system: CCRF-CEM leukemia
UACC-62 melanoma = test system: UACC-62 melanoma
NCI-H226 lung = test system: NCI-H226 lung
BT-549 breast = test system: BT-549 breast
NCI-H522 lung = test system: NCI-H522 lung
SK-OV-3 ovarian = test system: SK-OV-3 ovarian
SF-295 CNS = test system: SF-295 CNS
HCT-116 colon = test system: HCT-116 colon
SNB-75 CNS = test system: SNB-75 CNS
K-562 leukemia = test system: K-562 leukemia
OVCAR-5 ovarian = test system: OVCAR-5 ovarian
U251 CNS = test system: U251 CNS
SN12C renal = test system: SN12C renal
TK-10 renal = test system: TK-10 renal
HOP-92 NSCLC = test system: HOP-92 NSCLC
COLO 205 colon = test system: COLO 205 colon
UACC-257 melanoma = test system: UACC-257 melanoma
M14 melanoma = test system: M14 melanoma
IGROV1 ovarian = test system: IGROV1 ovarian
MDA-MB-231 breast = test system: MDA-MB-231 breast
MCF7 breast = test system: MCF7 breast
OVCAR-3 ovarian = test system: OVCAR-3 ovarian
MDA-MB-435 = test system: MDA-MB-435
MOLT-4 leukemia = test system: MOLT-4 leukemia

**Q.** What does the source list for `COc1ccc(C(=O)/C=C2\C(=O)Nc3ccc(Br)cc32)cc1`?
**A.** TGI (HT29 colon): 3.28 µM; TGI (SNB-19 CNS): 36.2 µM; TGI (OVCAR-8 ovarian): 4.7 µM; TGI (HS 578T breast): 50.3 µM; TGI (OVCAR-4 ovarian): 32.1 µM; TGI (HOP-62 NSCLC): 37.9 µM; TGI (ACHN renal): 3.4 µM; TGI (NCI-H460 lung): 26.7 µM; TGI (SK-MEL-2 melanoma): 37.4 µM; TGI (EKVX NSCLC): 29.1 µM; TGI (PC-3 prostate): 23.1 µM; TGI (MDA-N): 16.7 µM; TGI (CAKI-1 renal): 21.4 µM; TGI (786-0 renal): 3.74 µM; TGI (T-47D breast): 26.3 µM; TGI (HL-60(TB) leukemia): 6.37 µM; TGI (KM12 colon): 9.16 µM; TGI (RPMI-8226 leukemia): > 23.8 µM; TGI (SK-MEL-5 melanoma): > 50.4 µM; TGI (RXF 393 renal): 5.08 µM; TGI (HCT-15 colon): 4.86 µM; TGI (A498 renal): 33.7 µM; TGI (SR leukemia): > 21.2 µM; TGI (SF-539 CNS): 25.7 µM; TGI (SK-MEL-28 melanoma): 29 µM; TGI (SW-620 colon): 7.83 µM; TGI (HCC-2998 colon): 12.3 µM; TGI (LOX IMVI melanoma): 4.27 µM; TGI (DU-145 prostate): 19.9 µM; TGI (A549 NSCLC): > 51.2 µM; TGI (SF-268 CNS): 47.4 µM; TGI (NCI-H23 lung): 16.2 µM; TGI (NCI/ADR-RES ovarian): 3.95 µM; TGI (MALME-3M melanoma): 34.6 µM; TGI (UO-31 renal): 5.05 µM; TGI (CCRF-CEM leukemia): 32.2 µM; TGI (UACC-62 melanoma): 29 µM; TGI (NCI-H226 lung): 28.6 µM; TGI (BT-549 breast): 13.8 µM; TGI (NCI-H522 lung): 13.4 µM; TGI (SK-OV-3 ovarian): 29.6 µM; TGI (SF-295 CNS): 30.6 µM; TGI (HCT-116 colon): 8.7 µM; TGI (SNB-75 CNS): 27.8 µM; TGI (K-562 leukemia): > 100 µM; TGI (OVCAR-5 ovarian): 46.1 µM; TGI (U251 CNS): 34.2 µM; TGI (SN12C renal): 6.62 µM; TGI (TK-10 renal): 3.32 µM; TGI (HOP-92 NSCLC): 8.39 µM; TGI (COLO 205 colon): 4.56 µM; TGI (UACC-257 melanoma): 25.9 µM; TGI (M14 melanoma): > 48.3 µM; TGI (IGROV1 ovarian): 11.4 µM; TGI (MDA-MB-231 breast): 15.5 µM; TGI (MCF7 breast): 21.1 µM; TGI (OVCAR-3 ovarian): 11.2 µM; TGI (MDA-MB-435): 27.8 µM; TGI (MOLT-4 leukemia): > 21.9 µM

**Q.** Which TGI (HT29 colon) does the source give for `Cn1c(=O)cc(NNc2ccccc2)[nH]c1=O` here?
**A.** 29.1 µM

**Q.** What about the TGI (SNB-19 CNS) of the same compound?
**A.** > 100 µM

**Q.** And the TGI (OVCAR-8 ovarian)?
**A.** 42.1 µM

**Q.** And the TGI (HS 578T breast)?
**A.** > 100 µM

**Q.** What about the TGI (OVCAR-4 ovarian) of the same compound?
**A.** > 100 µM

**Q.** And the TGI (HOP-62 NSCLC)?
**A.** > 100 µM

**Q.** What about the TGI (ACHN renal) of the same compound?
**A.** > 100 µM

**Q.** And the TGI (NCI-H460 lung)?
**A.** > 100 µM

**Q.** What about the TGI (SK-MEL-2 melanoma) of the same compound?
**A.** > 100 µM

**Q.** And the TGI (EKVX NSCLC)?
**A.** > 100 µM

**Q.** And the TGI (PC-3 prostate)?
**A.** > 100 µM

**Q.** And the TGI (MDA-N)?
**A.** > 100 µM

**Q.** What about the TGI (CAKI-1 renal) of the same compound?
**A.** 29.2 µM

**Q.** What about the TGI (786-0 renal) of the same compound?
**A.** 30 µM

**Q.** What about the TGI (T-47D breast) of the same compound?
**A.** 38.9 µM

**Q.** What about the TGI (HL-60(TB) leukemia) of the same compound?
**A.** 56.8 µM

**Q.** What about the TGI (KM12 colon) of the same compound?
**A.** 49.9 µM

**Q.** What about the TGI (RPMI-8226 leukemia) of the same compound?
**A.** 48.1 µM

**Q.** And the TGI (SK-MEL-5 melanoma)?
**A.** > 100 µM

**Q.** What about the TGI (RXF 393 renal) of the same compound?
**A.** 33.6 µM

**Q.** And the TGI (HCT-15 colon)?
**A.** 30.1 µM

**Q.** What about the TGI (A498 renal) of the same compound?
**A.** > 100 µM

**Q.** What about the TGI (SR leukemia) of the same compound?
**A.** 57.8 µM

**Q.** What about the TGI (SF-539 CNS) of the same compound?
**A.** > 100 µM

**Q.** What about the TGI (SK-MEL-28 melanoma) of the same compound?
**A.** 60.4 µM

**Q.** And the TGI (SW-620 colon)?
**A.** 31.3 µM

**Q.** And the TGI (HCC-2998 colon)?
**A.** > 100 µM

**Q.** And the TGI (LOX IMVI melanoma)?
**A.** 28.3 µM

**Q.** What about the TGI (DU-145 prostate) of the same compound?
**A.** > 100 µM

**Q.** And the TGI (A549 NSCLC)?
**A.** > 100 µM

**Q.** What about the TGI (SF-268 CNS) of the same compound?
**A.** > 100 µM

**Q.** And the TGI (NCI-H23 lung)?
**A.** > 100 µM

**Q.** What about the TGI (NCI/ADR-RES ovarian) of the same compound?
**A.** > 100 µM

**Q.** And the TGI (MALME-3M melanoma)?
**A.** 75.9 µM

**Q.** What about the TGI (UO-31 renal) of the same compound?
**A.** > 100 µM

**Q.** And the TGI (CCRF-CEM leukemia)?
**A.** 90.4 µM

**Q.** What about the TGI (UACC-62 melanoma) of the same compound?
**A.** > 100 µM

**Q.** And the TGI (NCI-H226 lung)?
**A.** > 100 µM

**Q.** And the TGI (BT-549 breast)?
**A.** > 100 µM

**Q.** What about the TGI (NCI-H522 lung) of the same compound?
**A.** 28.9 µM

**Q.** What about the TGI (SK-OV-3 ovarian) of the same compound?
**A.** > 100 µM

**Q.** What about the TGI (SF-295 CNS) of the same compound?
**A.** > 100 µM

**Q.** What about the TGI (HCT-116 colon) of the same compound?
**A.** 31.6 µM

**Q.** What about the TGI (SNB-75 CNS) of the same compound?
**A.** > 100 µM

**Q.** What about the TGI (K-562 leukemia) of the same compound?
**A.** > 100 µM

**Q.** What about the TGI (OVCAR-5 ovarian) of the same compound?
**A.** > 100 µM

**Q.** And the TGI (U251 CNS)?
**A.** 31.7 µM

**Q.** What about the TGI (SN12C renal) of the same compound?
**A.** > 100 µM

**Q.** And the TGI (TK-10 renal)?
**A.** 65.9 µM

**Q.** What about the TGI (HOP-92 NSCLC) of the same compound?
**A.** 44.7 µM

**Q.** What about the TGI (COLO 205 colon) of the same compound?
**A.** > 100 µM

**Q.** And the TGI (UACC-257 melanoma)?
**A.** > 100 µM

**Q.** And the TGI (M14 melanoma)?
**A.** 89.9 µM

**Q.** What about the TGI (IGROV1 ovarian) of the same compound?
**A.** 85.7 µM

**Q.** And the TGI (MDA-MB-231 breast)?
**A.** 33.5 µM

**Q.** What about the TGI (MCF7 breast) of the same compound?
**A.** 12.8 µM

**Q.** And the TGI (OVCAR-3 ovarian)?
**A.** 30.4 µM

**Q.** And the TGI (MDA-MB-435)?
**A.** 75 µM

**Q.** What about the TGI (MOLT-4 leukemia) of the same compound?
**A.** > 100 µM

Source: PubChem BioAssay (NCI)
